Reference: publication PMC6151525, “Investigation of the N-Terminus Amino Function of Arg10-Teixobactin” (Molecules : A Journal of Synthetic Chemistry and Natural …, 2017)
Read-outs that look alike come from different tables or passages of the source.

Legend:
[1] = format: physicochemical
Procedure: The most hydrophobic analogs, 5, 6, and 8, presented several difficulties regarding purification. […] Nevertheless, by washing the solid obtained several times with 30% acetonitrile in water, impurities from the cyclization were removed, as were the protecting groups, and the decanoyl derivative was obtained in good purity (Figure S11). The mixture of compounds 5 and 6 was also a challenge with respect to solubilization. In this case, the addition first of 100 μL of TFA and then 7 mL of acetonitrile, followed by sonication for 15 min, yielded a clear solution. Then, 3 mL of water was added slowly and no precipitation of the compounds was observed. This solution was injected into the semi-preparative HPLC, and the two analogs were separated efficiently.
After the purification and characterization of the new analogs by MALDI-TOF, their antimicrobial activity was tested against two gram-positive bacteria strains, Staphylococcus aureus and Bacillo subtilis, as well as two gram-negative strains, namely Escherichia coli and Pseudomonas aeruginosa (Table 1). […] They were then diluted to reach 512 μg/mL, the highest concentration tested, followed by two-fold serial dilution.

[2] = system: Bacillus subtilis ATCC 6051; format: cell-based; settings: ATCC 6051, 24 h
Procedure: (§1) After the purification and characterization of the new analogs by MALDI-TOF, their antimicrobial activity was tested against two gram-positive bacteria strains, Staphylococcus aureus and Bacillo subtilis, as well as two gram-negative strains, namely Escherichia coli and Pseudomonas aeruginosa (Table 1). […] They were then diluted to reach 512 μg/mL, the highest concentration tested, followed by two-fold serial dilution. […] The MIC was determined using the broth micro dilution method, as described by the Clinical and Laboratory Standards Institute (CLSI) guidelines, using two gram-positive and two gram-negative bacteria strains (Staphylococcus aureus ATCC 29213, Bacillus subtilis ATCC 6051, Escherichia coli ATCC 25922, Pseudomonas aeruginosa ATCC 27853). First, the bacterial strains were sub-cultured onto Mueller Hinton agar and incubated at 37 °C for 24 h before use in the experiments. Stock solutions at 6 mg/mL in 10% DMSO were prepared for analogs 1–4 and 60% DMSO for analogs 5, 6, and 8. Second, two-fold serial dilutions of each drug/compound were made in cation-adjusted Mueller Hinton broth (CAMHB) in a 96-well microtiter plate. The bacterial inoculum was prepared in distilled water, matched to a 0.5 McFarland standard, and added to make a final volume of 200 µL in each microliter well. The plates were incubated for 24 h at 37 °C under aerobic conditions. The MIC was then recorded as the lowest concentration at which no visible growth occurred. Standard drug, media, and bacterial growth control wells were included in each plate. […] The assay was performed in triplicate to confirm the results.

[3] = system: Staphylococcus aureus ATCC 29213; format: cell-based; settings: ATCC 29213, 24 h
Procedure: as §1

[4] = system: Bacillus subtilis ATCC 6051; settings: Gram+; natural teixobactin, reference line of Table 1; cited from earlier work
Excerpt: Table 1 Minimum Inhibitory Concentration (MIC) (µg/mL) for teixobactin analogs (1–6, 8–10). | column: Gram+ / B. subtilis ATCC 6051

[5] = system: Staphylococcus aureus ATCC 29213; settings: Gram+; natural teixobactin, reference line of Table 1; cited from earlier work
Excerpt: Table 1 Minimum Inhibitory Concentration (MIC) (µg/mL) for teixobactin analogs (1–6, 8–10). | column: Gram+ / S. aureus ATCC 29213

[6] = system: Escherichia coli ATCC 25922; settings: Gram−; natural teixobactin, reference line of Table 1; cited from earlier work
Excerpt: Table 1 Minimum Inhibitory Concentration (MIC) (µg/mL) for teixobactin analogs (1–6, 8–10). | column: Gram− / E. coli ATCC 25922

[7] = system: Pseudomonas aeruginosa ATCC 27853; settings: Gram−; natural teixobactin, reference line of Table 1; cited from earlier work
Excerpt: Table 1 Minimum Inhibitory Concentration (MIC) (µg/mL) for teixobactin analogs (1–6, 8–10). | column: Gram− / P. aerug ATCC 27853

[8] = system: Escherichia coli ATCC 25922; format: cell-based; settings: ATCC 25922, 24 h
Procedure: as §1

[9] = system: Pseudomonas aeruginosa ATCC 27853; assay: MIC, broth microdilution (CLSI); format: cell-based; settings: Gram−, CAMHB, 24 h at 37 °C, two-fold dilutions from 512 µg/mL, triplicate
Procedure: After the purification and characterization of the new analogs by MALDI-TOF, their antimicrobial activity was tested against two gram-positive bacteria strains, Staphylococcus aureus and Bacillo subtilis, as well as two gram-negative strains, namely Escherichia coli and Pseudomonas aeruginosa (Table 1). […] They were then diluted to reach 512 μg/mL, the highest concentration tested, followed by two-fold serial dilution. […] The MIC was determined using the broth micro dilution method, as described by the Clinical and Laboratory Standards Institute (CLSI) guidelines, using two gram-positive and two gram-negative bacteria strains (Staphylococcus aureus ATCC 29213, Bacillus subtilis ATCC 6051, Escherichia coli ATCC 25922, Pseudomonas aeruginosa ATCC 27853). First, the bacterial strains were sub-cultured onto Mueller Hinton agar and incubated at 37 °C for 24 h before use in the experiments. Stock solutions at 6 mg/mL in 10% DMSO were prepared for analogs 1–4 and 60% DMSO for analogs 5, 6, and 8. Second, two-fold serial dilutions of each drug/compound were made in cation-adjusted Mueller Hinton broth (CAMHB) in a 96-well microtiter plate. The bacterial inoculum was prepared in distilled water, matched to a 0.5 McFarland standard, and added to make a final volume of 200 µL in each microliter well. […] The MIC was then recorded as the lowest concentration at which no visible growth occurred. […]

Compound	solubility in water [1]	Minimum Inhibitory Concentration (MIC) B. subtilis ATCC 6051 [2]	Minimum Inhibitory Concentration (MIC) S. aureus ATCC 29213 [3]	Minimum Inhibitory Concentration (MIC) E. coli ATCC 25922 [8]	further results
N-Dec-D-Phe-Arg10-teixobactin [compound 8]	poor solubility in water				solubility in solvent systems compatible with reverse-phase chromatography [1]: not possible to dissolve
CC[C@H](C)[C@H](NC(=O)[C@@H](Cc1ccccc1)N=C(N(C)C)N(C)C)C(=O)N[C@@H](CO)C(=O)N[C@H](CCC(N)=O)C(=O)N[C@@H](C(=O)N[C@H](C(=O)N[C@@H](CO)C(=O)N[C@H]1C(=O)N[C@@H](C)C(=O)N[C@@H](CCCNC(=N)N)C(=O)N[C@@H]([C@@H](C)CC)C(=O)O[C@H]1C)[C@@H](C)CC)[C@@H](C)CC [compound 10, N-Tmg-D-Phe-Arg10-teixobactin]		64 µg/mL	256 µg/mL		
Teixobactin					Minimum Inhibitory Concentration (MIC) B. subtilis ATCC 6051 [4]: 0.06 µg/mL; Minimum Inhibitory Concentration (MIC) S. aureus ATCC 29213 [5]: 0.25 µg/mL; Minimum Inhibitory Concentration (MIC) E. coli ATCC 25922 [6]: 25 µg/mL; Minimum Inhibitory Concentration (MIC) P. aerug ATCC 27853 [7]: >32 µg/mL
CC[C@H](C)[C@H](NC(=O)[C@@H](Cc1ccccc1)N(C)C)C(=O)N[C@@H](CO)C(=O)N[C@H](CCC(N)=O)C(=O)N[C@@H](C(=O)N[C@H](C(=O)N[C@@H](CO)C(=O)N[C@H]1C(=O)N[C@@H](C)C(=O)N[C@@H](CCCNC(=N)N)C(=O)N[C@@H]([C@@H](C)CC)C(=O)O[C@H]1C)[C@@H](C)CC)[C@@H](C)CC [compound 3, N-Me2-D-Phe-Arg10-teixobactin]		2 µg/mL	16 µg/mL	128 µg/mL	
CC[C@H](C)[C@H](NC(=O)[C@@H](Cc1ccccc1)NC)C(=O)N[C@@H](CO)C(=O)N[C@H](CCC(N)=O)C(=O)N[C@@H](C(=O)N[C@H](C(=O)N[C@@H](CO)C(=O)N[C@H]1C(=O)N[C@@H](C)C(=O)N[C@@H](CCCNC(=N)N)C(=O)N[C@@H]([C@@H](C)CC)C(=O)O[C@H]1C)[C@@H](C)CC)[C@@H](C)CC [compound 1, N-Me-D-Phe-Arg10-teixobactin]		0.5 µg/mL	2 µg/mL	64 µg/mL	Minimum Inhibitory Concentration (MIC) P. aerug ATCC 27853 [9]: NI ^1
CCCCCCCCCCN[C@H](Cc1ccccc1)C(=O)N[C@H](C(=O)N[C@@H](CO)C(=O)N[C@H](CCC(N)=O)C(=O)N[C@@H](C(=O)N[C@H](C(=O)N[C@@H](CO)C(=O)N[C@H]1C(=O)N[C@@H](C)C(=O)N[C@@H](CCCNC(=N)N)C(=O)N[C@@H]([C@@H](C)CC)C(=O)O[C@H]1C)[C@@H](C)CC)[C@@H](C)CC)[C@@H](C)CC [compound 5, N-De-D-Phe-Arg10-teixobactin]	poor solubility in water	128 µg/mL			
CC[C@H](C)[C@H](NC(=O)[C@H](N)Cc1ccccc1)C(=O)N[C@@H](CO)C(=O)N[C@H](CCC(N)=O)C(=O)N[C@@H](C(=O)N[C@H](C(=O)N[C@@H](CO)C(=O)N[C@H]1C(=O)N[C@@H](C)C(=O)N[C@@H](CCCNC(=N)N)C(=O)N[C@@H]([C@@H](C)CC)C(=O)O[C@H]1C)[C@@H](C)CC)[C@@H](C)CC [compound 2, D-Phe-Arg10-teixobactin]		1 µg/mL	2 µg/mL	32 µg/mL	
CCCCCCCCCCN(CCCCCCCCCC)[C@H](Cc1ccccc1)C(=O)N[C@H](C(=O)N[C@@H](CO)C(=O)N[C@H](CCC(N)=O)C(=O)N[C@@H](C(=O)N[C@H](C(=O)N[C@@H](CO)C(=O)N[C@H]1C(=O)N[C@@H](C)C(=O)N[C@@H](CCCNC(=N)N)C(=O)N[C@@H]([C@@H](C)CC)C(=O)O[C@H]1C)[C@@H](C)CC)[C@@H](C)CC)[C@@H](C)CC [compound 6, N-De2-D-Phe-Arg10-teixobactin]	poor solubility in water	128 µg/mL			
